# Measurements as given in patent US20060160784A1, “Method for treating neurologic diseases” (priority 2005, published 2006).
# Values joined by “and” are separate entries in the source; they are usually repeats but may differ in a detail not shown here. Identical values can stand only once.
# System: G93A transgenic mice
# Test: Survival of G93A murine ALS model mice treated with MGd from symptom onset
# Type: in vivo
# Details: for survival interval (survival data used for plot B), individual animals: one value per mouse, unit days
# Source text: (§1) Transgenic mice which overexpress the G93A human Cu, Zn superoxide dismutase (SOD 1) mutant develop motor paralysis similar to amyotrophic lateral sclerosis (ALS) in humans. At 90-100 days of age, these mice develop hindlimb weakness which rapidly progresses to total body paralysis within 2-3 weeks. Such trangenic mice were used to evaluate the survival and neuroprotective action of MGd with G93A transgenic mice. In particular, the purpose of this study was to test the effect of MGd (administered at a loading dose of 5 mg/kg and a maintenance dose of 2.5 mg/kg/day i.p. thereafter).
# Studies involved the use of G93A overexpressing mice purchased directly from JAX Labs. Due to the high variability in age of onset (of motor neuron disease or MND) and total survival, a mouse colony was bred using the JAX Labs protocols. […] Therefore, littermate males were chosen to sire subsequent offspring and used to produce 10-12 litters of age-matched mice for drug studies. Typically 50-60 transgenic mice were obtained from 10-12 litters and, within these groups, the variability in age of onset and survival was quite low.
# (§2) The procedure used involved monitoring the transgenic mice from several litters for onset of symptoms of motor neuron degeneration. At symptom onset (muscle weakness), mice were randomly assigned sequentially to either Control (no treatment) or Treatment (MGd-treated) groups. Mice were sacrificed when moribund (unable to assume upright posture), as required by animal welfare protocol. Motexafin gadolinium formulated at 2 mM (2.3 mg/ml) in 5% aqueous mannitol was used for this study and the study group involved 10-11 animals in each group, 21 animals total.
# At the onset of symptoms MGd was administered via i.p injection at a loading dose of 5 mg/kg and a maintenance dose of 2.5 mg/kg/day i.p injection. was administered thereafter.
# as §1, with “(SOD1)” for “(SOD 1)”, “a” for “a loading”, “1” for “5 mg/kg and a maintenance dose of 2.5”, “i.p.).” for “i.p. thereafter).”
# as §2, with “9” for “10-11”, “18” for “21”
# At the onset of symptoms MGd was administered via i.p injection at a dose of 1 mg/kg/day.
# as §1, with “a” for “a loading dose of 5 mg/kg and a maintenance”, “mg/kg/q.2d. and 2.5 mg/kg/q.4d. i.p.).” for “mg/kg/day i.p. thereafter).”
# as §2, with “Motexafin gadolinium formulated at 2 mM (2.3 mg/ml) in 5% aqueous mannitol was used for this study and the study group involved 10-11 animals in each group, 21 animals total.” left out
smiles,measurement,setting,value
"CC(=O)[O-].CC(=O)[O-].CCc1c(CC)c2cc3nc(cnc4cc(OCCOCCOCCOC)c(OCCOCCOCCOC)cc4ncc4nc(cc1[n-]2)C(CCCO)=C4C)C(C)=C3CCCO.O.[Gd+3] [MGd, Motexafin Gadolinium]",extension of mean survival over untreated control mice,"Example 10, loading dose 5 mg/kg i.p., then 2.5 mg/kg/day i.p.",roughly 2.7 fold
same,"survival interval (survival data used for plot B), individual animals","Example 10, loading dose 5 mg/kg i.p., then 2.5 mg/kg/day i.p. from symptom onset",53 days and 54 days and 26 days and 23 days and 21 days and 20 days and 46 days and 55 days and 36 days and 32 days
same,mean survival,"Example 10, loading dose 5 mg/kg i.p., then 2.5 mg/kg/day i.p., untreated control 13.4 days, p=4×10^−5",36.6 days
same,extension of mean survival over untreated control mice,"Example 11, 1 mg/kg/day i.p.",roughly 2.5 fold
same,"survival interval (survival data used for plot B), individual animals","Example 11, 1 mg/kg/day i.p. from symptom onset, 1 mg/kg/day",48 days and 41 days (2×) and 35 days (2×) and 49 days and 39 days and 52 days and 54 days
same,mean survival,"Example 11, 1 mg/kg/day i.p., untreated control 17.2 days, p<1×10^−5",43.8 days
same,extension of survival over untreated control mice,"Example 12, 2.5 mg/kg/q.2d. i.p.",roughly 1.3 fold
same,"survival interval (survival data used for plot B), individual animals","Example 12, 2.5 mg/kg/q.2d. i.p. from symptom onset, 2.5 mg/kg",20 days and 37 days and 35 days and 30 days and 28 days (2×)
same,mean survival,"Example 12, 2.5 mg/kg/q.2d. i.p., untreated control 23 days, p=0.069",30 days
same,extension of survival over untreated control mice,"Example 12, 2.5 mg/kg/q.4d. i.p.",~1.4 fold
same,"survival interval (survival data used for plot B), individual animals","Example 12, 2.5 mg/kg/q.4d. i.p. from symptom onset, 2.5 mg/kg",30 days and 38 days and 20 days and 35 days and 26 days and 47 days
same,mean survival,"Example 12, 2.5 mg/kg/q.4d. i.p., untreated control 23 days, p=0.068",33 days
